{"source": "paper PMC4549712", "about": "“Inhibition of human GLUT1 and GLUT5 by plant carbohydrate products; insights into transport specificity” (Scientific Reports, 2015)", "key": {"[1]": {"biological_target": "T1, human GLUT1 (Homo sapiens, UniProt P11166)", "T1 construct": "Full length DNA was subcloned into pFastBac1 (Life Technologies) vector with a N-terminal hexahistidine tag; hexahistidine (thrombin-cleavable) (N, cleaved yes); made in house; host or cells: Sf21 insect cells (baculovirus, pFastBac1)", "T1 sequence (P11166 1-492)": "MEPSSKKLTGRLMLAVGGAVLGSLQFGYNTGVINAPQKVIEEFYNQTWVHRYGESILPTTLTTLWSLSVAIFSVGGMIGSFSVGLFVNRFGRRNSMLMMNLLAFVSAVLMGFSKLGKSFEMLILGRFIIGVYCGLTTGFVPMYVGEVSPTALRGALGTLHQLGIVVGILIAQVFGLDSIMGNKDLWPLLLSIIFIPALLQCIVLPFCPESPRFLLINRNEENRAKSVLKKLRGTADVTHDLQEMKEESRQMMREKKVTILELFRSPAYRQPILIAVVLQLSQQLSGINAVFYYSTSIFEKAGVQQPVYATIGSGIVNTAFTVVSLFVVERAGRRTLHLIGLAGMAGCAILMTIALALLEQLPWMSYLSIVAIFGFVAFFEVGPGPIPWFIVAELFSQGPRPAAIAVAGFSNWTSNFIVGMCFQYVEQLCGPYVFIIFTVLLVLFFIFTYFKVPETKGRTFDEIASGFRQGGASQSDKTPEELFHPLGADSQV", "experiment": "entrance counter-flow transport assay, GLUT1-mediated glucose transport in proteoliposomes", "assay_type": "biochemical", "settings": "for inhibition of GLUT1 glucose transport activity: 20 mM", "procedure": "Human GLUT1 and GLUT5 were expressed recombinantly in insect cell culture. The purified proteins were reconstituted into proteoliposomes. To measure the inhibition of GLUT1 or GLUT5 transport activity we used entrance counter-flow transport assay. In GLUT1 and GLUT5 proteoliposomes, substrate transport reached steady state after one minute incubation at room temperature.\n(§1) Proteoliposomes were generated according to the protocol from[30] with minor modifications. Liposomes were produced from a 95/5% (w/w) mix of soy phosphatidylcholine and cholesterol (Avanti Polar Lipids). Briefly, hexane-washed and vacuum-dried lipids were resuspended to 20 mg/ml in 100 mM KPi (pH 7.5), and then subjected to 11 freeze-and-thaw cycles in liquid nitrogen and room temperature water. The lipid mixture was extruded through a 0.1 μm polycarbonate filter. Prepared liposomes were destabilized with 4 mM Triton X-100 and mixed with purified protein in a 100:1 (w/w) ratio in 100 mM KPi (pH 7.5) 20% (v/v) glycerol, 200 mM (glucose or fructose). Detergent was removed by several additions of SM2 BioBeads (BioRad) and incubated overnight at 4 °C. After filtering out the BioBeads, proteoliposomes were diluted with 100 mM KPi (pH 7.5) 200 mM (glucose or fructose), and then collected by ultracentrifugation, at 200,000 × g and 4 °C, for 1 hour. The proteoliposomes pellet was resuspended in the above buffer so that O.D.600nm was ~30.\nTo measure hexose transport, we utilized entrance counter-flow assay. Transport was performed in a volume of 100 μL of 100 mM KPi (pH 7.5) buffer containing radioactive ^14C-hexose (4 μM fructose or 5 μM glucose) with inhibitors added before initiation of transport. Radioactive substrate uptake in GLUT1 and GLUT5 (wild-type or mutant) proteoliposomes was constant between 1 and 2 mins. The reaction was started by the addition of 3 μL concentrated proteoliposomes to the above solution and incubated at room temperature; the transport was stopped after one minute by addition of ice-chilled quench buffer [100 mM KPi (pH 5.5) and 100 mM LiCl]. The solution was filtered through a 0.4 μm pore size cellulose nitrate membrane filter (Whatman), and the filter was washed three times with quench buffer. The membrane filter was placed into a vial filled with BioSafe II scintillation liquid (Research Products International Corp.), and radioactivity was quantified with LS 6500 scintillation counter (Beckman). […] The transport assays were unaffected by 5% DMSO. Data is presented as relative activity normalized to radioactivity of no inhibitor added as 100% and empty proteoliposomes as 0%. Kinetic parameters were fitted by nonlinear algorithm plots using Prism (GraphPad Software)."}, "[2]": {"biological_target": "T2, human GLUT5 (Homo sapiens, UniProt P22732)", "T2 construct": "Full length DNA was subcloned into pFastBac1 (Life Technologies) vector with a N-terminal hexahistidine tag; hexahistidine (thrombin-cleavable) (N, cleaved yes); made in house; host or cells: Sf21 insect cells (baculovirus, pFastBac1)", "T2 sequence (P22732 1-501)": "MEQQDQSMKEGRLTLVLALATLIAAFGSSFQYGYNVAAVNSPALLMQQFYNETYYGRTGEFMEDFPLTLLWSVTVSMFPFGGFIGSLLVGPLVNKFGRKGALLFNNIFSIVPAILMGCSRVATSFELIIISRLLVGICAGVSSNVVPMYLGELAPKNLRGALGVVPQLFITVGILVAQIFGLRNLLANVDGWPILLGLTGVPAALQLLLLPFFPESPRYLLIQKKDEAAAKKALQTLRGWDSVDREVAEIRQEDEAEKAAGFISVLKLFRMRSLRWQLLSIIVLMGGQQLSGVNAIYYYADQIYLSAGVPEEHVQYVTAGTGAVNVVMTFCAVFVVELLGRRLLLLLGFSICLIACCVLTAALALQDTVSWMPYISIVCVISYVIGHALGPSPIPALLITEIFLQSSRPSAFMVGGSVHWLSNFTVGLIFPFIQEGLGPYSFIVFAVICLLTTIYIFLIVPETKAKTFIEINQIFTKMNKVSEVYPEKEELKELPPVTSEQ", "experiment": "entrance counter-flow transport assay, GLUT5-mediated fructose transport in proteoliposomes", "assay_type": "biochemical", "settings": "added at 20 mM", "description": "Human GLUT1 and GLUT5 were expressed recombinantly in insect cell culture. The purified proteins were reconstituted into proteoliposomes. To measure the inhibition of GLUT1 or GLUT5 transport activity we used entrance counter-flow transport assay.\nas §1\nTo measure hexose transport, we utilized entrance counter-flow assay. Transport was performed in a volume of 100 μL of 100 mM KPi (pH 7.5) buffer containing radioactive ^14C-hexose (4 μM fructose or 5 μM glucose) with inhibitors added before initiation of transport. […] The reaction was started by the addition of 3 μL concentrated proteoliposomes to the above solution and incubated at room temperature; the transport was stopped after one minute by addition of ice-chilled quench buffer [100 mM KPi (pH 5.5) and 100 mM LiCl]. The solution was filtered through a 0.4 μm pore size cellulose nitrate membrane filter (Whatman), and the filter was washed three times with quench buffer. The membrane filter was placed into a vial filled with BioSafe II scintillation liquid (Research Products International Corp.), and radioactivity was quantified with LS 6500 scintillation counter (Beckman). […] Data is presented as relative activity normalized to radioactivity of no inhibitor added as 100% and empty proteoliposomes as 0%. Kinetic parameters were fitted by nonlinear algorithm plots using Prism (GraphPad Software)."}, "[3]": {"parameters": "method as in PMID 22133440", "settings": "cited from earlier work"}, "[4]": {"system": "GLUT5", "parameters": "method as in PMID 9166863", "settings": "cited from earlier work"}, "[5]": {"system": "GLUT1", "parameters": "method as in PMID 9286080", "settings": "cited from earlier work"}, "[6]": {"system": "glucose/H+ symporter GlcPSe", "parameters": "method as in PMID 24127585", "settings": "cited from earlier work"}, "[7]": {"system": "human GLUT2", "parameters": "method as in PMID 1716731", "settings": "cited from earlier work"}, "[8]": {"system": "human GLUT4", "parameters": "method as in PMID 1716731", "settings": "cited from earlier work"}, "[9]": {"system": "GLUT5", "parameters": "method as in PMID 9166863", "settings": "read-out: GLUT5 Km for fructose; cited from earlier work"}, "[10]": {"system": "GLUT1", "settings": "read-out: GLUT1 Km for glucose; cited from earlier work"}, "[11]": {"parameters": "method as in PMID 22133440", "settings": "cited from earlier work", "remark": "listed apart in the source"}}, "note": "“Also recorded” adds a separate entry of the source.", "data": [{"compound": "OC[C@H]1O[C@H](O[C@H]2[C@H](O)[C@@H](O)C(O)O[C@@H]2CO)[C@H](O)[C@@H](O)[C@@H]1O", "note": "(mixture of isomers) [maltose]", "values": [{"measurement": "GLUT1 transport activity (relative glucose transport)", "setting": "[1]; 20 mM compound", "value": "~ 80%"}, {"measurement": "inhibition of GLUT5 fructose transport activity", "setting": "[2]", "value": "neither maltose nor maltohexaose (6 glucose units) inhibited GLUT5"}]}, {"compound": "O=c1c(O[C@@H]2O[C@H](CO)[C@@H](O)[C@H](O)[C@H]2O)c(-c2ccc(O)cc2)oc2cc(O)cc(O)c12", "note": "[astragalin]", "values": [{"measurement": "solubility in water", "setting": "[3]", "value": "insoluble in water"}, {"measurement": "inhibition of GLUT5 fructose transport activity", "setting": "[2]", "value": "neither maltohexaose nor astragalin alone inhibit GLUT5"}]}, {"compound": "C=C1[C@@H](C)[C@H]2[C@H](Cc3ccccc3)NC(=O)[C@]23OC(=O)/C=C/[C@H](O)CCC[C@@H](C)C/C=C/[C@H]3[C@@H]1O", "note": "[cytochalasin B]", "values": [{"measurement": "inhibition of GLUT5", "setting": "[4]", "value": "not GLUT5"}, {"measurement": "inhibition of GLUT1 activity", "setting": "[5]", "value": "inhibitors"}, {"measurement": "inhibition of bacterial glucose/H+ symporter GlcPSe", "setting": "[6]", "value": "inhibit"}, {"measurement": "inhibition of human GLUT2", "setting": "[7]", "value": "inhibit"}, {"measurement": "inhibition of human GLUT4", "setting": "[8]", "value": "inhibit"}]}, {"compound": "C=C[C@@]1(C)CC(=O)[C@]2(O)[C@@]3(C)[C@@H](O)CCC(C)(C)[C@@H]3[C@H](O)[C@H](OC(C)=O)[C@@]2(C)O1", "note": "[forskolin]", "values": [{"measurement": "inhibition of GLUT5", "setting": "[4]", "value": "not GLUT5"}, {"measurement": "inhibition of GLUT1 activity", "setting": "[5]", "value": "inhibitors"}, {"measurement": "inhibition of bacterial glucose/H+ symporter GlcPSe", "setting": "[6]", "value": "inhibit"}, {"measurement": "inhibition of human GLUT2", "setting": "[7]", "value": "inhibit"}, {"measurement": "inhibition of human GLUT4", "setting": "[8]", "value": "inhibit"}]}, {"compound": "O=C(CO)[C@@H](O)[C@H](O)[C@H](O)CO", "note": "[fructose]", "values": [{"measurement": "Km", "setting": "[9]", "value": "~10", "unit": "mM"}]}, {"compound": "OC[C@H]1OC(O)[C@H](O)[C@@H](O)[C@@H]1O", "note": "(some centres unmarked) [glucose]", "values": [{"measurement": "Km", "setting": "[10]", "value": "~3", "unit": "mM"}]}, {"compound": "Astragalin-6-glucoside [Ast6G]", "values": [{"measurement": "inhibition of GLUT1 glucose transport activity", "setting": "[1]", "value": "not inhibited; also recorded: did not inhibit"}, {"measurement": "redox scavenging properties compared to astragalin", "setting": "[11]", "value": "increased redox scavenging properties"}]}, {"compound": "maltohexaose", "values": [{"measurement": "inhibition of GLUT1 glucose transport activity", "setting": "[1]", "value": "not inhibited"}, {"measurement": "inhibition of GLUT5 fructose transport activity", "setting": "[2]", "value": "neither maltose nor maltohexaose (6 glucose units) inhibited GLUT5; also recorded: neither maltohexaose nor astragalin alone inhibit GLUT5"}]}]}
